≈ marks a conversion by molar mass, not a printed value.

Broadly, the MIC is the lowest concentration found to suppress growth.

Some test systems named below: Escherichia coli JM109; Staphylococcus aureus; Enterococcus faecium VR; Staphylococcus aureus MR; Enterococcus faecalis; Enterococcus faecalis VR; Enterococcus faecium; Klebsiella pneumoniae M6; Staphylococcus aureus 15.
Common to all, as to assay: ≥ marks a high value that may be exact or a test limit, other limits are often not marked, values filed in µg/mL are converted to µM
The test system of experiment [1] is Salmonella typhimurium KCTC 1926.
Experiment [2] has as its system Staphylococcus aureus KCTC 1621.
The subject of experiment [3] is Bacillus subtilis KCTC 3068.
Experiment [4] relates to Staphylococcus epidermidis KCTC 1917.
The subject of experiment [5] is Pseudomonas aeruginosa KCTC 1637.
Experiment [6] deals with Escherichia coli KCTC 1682.
Experiment [7] concerns Staphylococcus aureus ATCC 6538P.
Experiment [8] relates to Pseudomonas aeruginosa PAO1.
Experiment [9] concerns Enterococcus faecalis NCTC 12201.
Experiment [10] deals with Enterococcus faecalis NCTC 12204.
For experiment [11], the system named is Xanthomonas axonopodis pv. phaseoli.
Experiment [12] relates to Pseudomonas aeruginosa NCTC 13437.
In experiment [13] the test system is Enterococcus faecalis NCTC 775.
Experiment [14] relates to Escherichia coli NCTC 12923.
The test system of experiment [15] is Staphylococcus aureus NCTC 9144.
Experiment [16] deals with Pseudomonas syringae pv. tomato.
Experiment [17] has as its system Acinetobacter baumannii AYE.
Experiment [18] concerns Klebsiella pneumoniae NCTC 13368.
In experiment [19] the test system is Acinetobacter baumannii ATCC 17987.
The subject of experiment [20] is Escherichia coli K-12 594.
Experiment [21] has as its system Staphylococcus aureus SR1550.

In the case of `CC[C@H](C)[C@H](NC(=O)[C@H](C)NC(=O)[C@H](CC(C)C)NC(=O)[C@H](CS)NC(=O)[C@H](Cc1cnc[nH]1)NC(=O)[C@H](C)NC(=O)[C@H](C)N)C(=O)NCC(=O)N[C@@H](CCCN=C(N)N)C(=O)N[C@@H](CCCN=C(N)N)C(N)=O` [AAHCLAIGRR], the MIC in [1] is 15 µM; in experiment [2], 7.5 µM; against Escherichia coli JM109, 15 µM; in [3] it was 7.5 µM; against Staphylococcus aureus it was > 60 µM; in [4], 15 µM. In addition, the MIC is 15 µM in [5]; 15 µM with Enterococcus faecium VR; 30 µM in the experiment on Staphylococcus aureus MR; 15 µM in [6]; 4.68 µM in experiment [7]; 15 µM in the experiment on Enterococcus faecalis. Further, the MIC in the experiment with Enterococcus faecalis VR stood at 30 µM; in the experiment with Enterococcus faecium it was 15 µM.
Regarding `CC[C@H](C)[C@H](NC(=O)[C@H](CCC(=O)O)NC(=O)[C@H](CC(N)=O)NC(=O)[C@H](CCCCN)NC(=O)[C@H](CC(C)C)NC(=O)[C@H](CCCCN)NC(=O)[C@H](CCCCN)NC(=O)[C@H](CCCN=C(N)N)NC(=O)[C@@H](NC(=O)[C@H](CCCCN)NC(=O)[C@H](CCC(=O)O)NC(=O)[C@H](CCCCN)NC(=O)CNC(=O)[C@H](C)N)[C@@H](C)CC)C(=O)N[C@@H](CCCCN)C(=O)N[C@@H](CCCCN)C(=O)N[C@@H](CCCCN)C(=O)NCC(=O)N[C@@H](CCCN=C(N)N)C(=O)N[C@@H](CCCCN)C(=O)N[C@@H](C)C(=O)N[C@H](C(=O)N[C@H](C(=O)N[C@@H](C)C(=O)N[C@@H](Cc1c[nH]c2ccccc12)C(=O)O)[C@@H](C)CC)C(C)C` [AGKEKIRKKLKNEIKKKGRKAVIAW], the MIC is > 43.8 µM in experiment [8]; ≥ 43.8 µM against Klebsiella pneumoniae M6; ≥ 43.8 µM in experiment [9]; ≥ 43.8 µM in experiment [10]; 0.342 µM (≈ 1 µg/mL) in experiment [11]; ≥ 43.8 µM in experiment [12]. In addition, the MIC was ≥ 43.8 µM in experiment [13]; 11 µM (≈ 32 µg/mL) in experiment [14]; ≥ 43.8 µM against Staphylococcus aureus 15; ≥ 43.8 µM in experiment [15]; 1.37 µM (≈ 4 µg/mL) in experiment [16]; 21.9 µM (≈ 64 µg/mL) in experiment [17]. Also, the MIC in [18] was ≥ 43.8 µM; in experiment [19], 21.9 µM (≈ 64 µg/mL).
As for `CC[C@H](C)[C@H](NC(=O)[C@H](CCC(=O)O)NC(=O)[C@H](CC(N)=O)NC(=O)[C@H](CCCCN)NC(=O)[C@H](CC(C)C)NC(=O)[C@H](Cc1ccc(O)cc1)NC(=O)[C@H](CCC(N)=O)NC(=O)[C@H](CCCN=C(N)N)NC(=O)[C@@H](NC(=O)[C@@H](NC(=O)[C@H](CCC(=O)O)NC(=O)[C@H](CCCCN)NC(=O)CNC(=O)[C@H](C)N)[C@@H](C)O)[C@@H](C)CC)C(=O)N[C@@H](CCCCN)C(=O)N[C@@H](CCCCN)C(=O)N[C@@H](CCCCN)C(=O)NCC(=O)N[C@@H](CCCN=C(N)N)C(=O)N[C@@H](CCCCN)C(=O)N[C@@H](C)C(=O)N[C@H](C(=O)N[C@H](C(=O)N[C@@H](C)C(=O)N[C@@H](Cc1c[nH]c2ccccc12)C(=O)O)[C@@H](C)CC)C(C)C` [AGKETIRQYLKNEIKKKGRKAVIAW], the MIC in [8] was > 43.7 µM; with Klebsiella pneumoniae M6, ≥ 43.7 µM; in [9], ≥ 43.7 µM; in [10], ≥ 43.7 µM; in experiment [11], 1.37 µM (≈ 4 µg/mL); in experiment [12], ≥ 43.7 µM. In addition, the MIC in experiment [13] was ≥ 43.7 µM; in experiment [14] it was 21.8 µM (≈ 64 µg/mL); with Staphylococcus aureus 15, ≥ 43.7 µM; in [15], ≥ 43.7 µM; in experiment [16], 5.46 µM (≈ 16 µg/mL); in experiment [17], 10.9 µM (≈ 32 µg/mL). The results for the MIC in [18] and in experiment [19] were ≥ 43.7 µM and 21.8 µM (≈ 64 µg/mL), respectively.
With `CC(C)C[C@H](NC(=O)[C@H](CC(C)C)NC(=O)[C@H](CC(C)C)NC(=O)[C@H](CC(C)C)NC(=O)[C@H](CC(C)C)NC(=O)[C@H](CCCCN)NC(=O)[C@@H](N)CCCCN)C(=O)N[C@@H](CCCCN)C(=O)N[C@@H](CCCCN)C(N)=O` [KKLLLLLKK], the MIC in experiment [20] amounted to 31.9 µM (≈ 35 µg/mL); in [7], 14.6 µM (≈ 16 µg/mL); in [21] it was 31.9 µM (≈ 35 µg/mL).
In the case of `CC(C)C[C@H](NC(=O)[C@H](CCCN=C(N)N)NC(=O)[C@H](CC(C)C)NC(=O)[C@H](CC(C)C)NC(=O)[C@H](CC(C)C)NC(=O)[C@H](CC(C)C)NC(=O)[C@H](CC(C)C)NC(=O)[C@H](CCCCN)NC(=O)[C@H](CC(C)C)NC(=O)[C@@H](N)CCCN=C(N)N)C(=O)N[C@@H](CCCCN)C(N)=O` [RLKLLLLLRLK], the MIC in [20] was found to be 14.5 µM (≈ 20 µg/mL); in [7] it was 0.725 µM (≈ 0.999 µg/mL); in experiment [21], 21.8 µM (≈ 30 µg/mL).
Take `CC(C)C[C@H](NC(=O)[C@H](CCCN=C(N)N)NC(=O)[C@H](CC(C)C)NC(=O)[C@H](CC(C)C)NC(=O)[C@H](CC(C)C)NC(=O)[C@H](CCCCN)NC(=O)[C@H](CC(C)C)NC(=O)[C@@H](N)CCCN=C(N)N)C(=O)N[C@@H](CCCCN)C(N)=O` [RLKLLLRLK]: the MIC worked out at 26 µM (≈ 30 µg/mL) in [20], 1.74 µM (≈ 2 µg/mL) in experiment [7] and 30.4 µM (≈ 35 µg/mL) in [21].
